Among the data in ChEMBL document CHEMBL1944584 (Bioorg Med Chem Lett, 2012) are Ki and Activity values, retold here.

The source made the active and inactive calls. The calls are words filed in the database; no cut-off is given here.

Common to all, as to type: cell-based
In experiment [1] the target is T1, Sodium-dependent dopamine transporter (Homo sapiens, UniProt Q01959). Description: Displacement of [3H]WIN-35,428 from human DAT expressed in N2A cells after 15 mins by photoaffinity labeling.
The target of experiment [2] is T1, Sodium-dependent dopamine transporter. Briefly: Binding affinity to human His6-DAT expressed in LLCPK1 cells at 10 nM after 1.5 hrs measured 2 mins post-irradiation by SDS-PAGE/autoradiography. To be noted: LLC-PK1, tested as the 125I-labelled form.
Experiment [3] shares this target. Briefly: Binding affinity to human His6-DAT expressed in LLCPK1 cells at 10 nM after 1.5 hrs measured 2 mins post-irradiation by autoradiography in the presence of (+/-)-bupropion. To be noted: LLC-PK1, tested as the 125I-labelled form.
For experiment [4] the target is unchanged. Briefly: Binding affinity to human His6-DAT expressed in LLCPK1 cells at 10 nM after 1.5 hrs measured 2 mins post-irradiation by autoradiography in the presence of (+/-)-cocaine. As to conditions: LLC-PK1, tested as the 125I-labelled form.
Experiment [5] concerns the target T2, Neuronal acetylcholine receptor; alpha4/beta2 (Homo sapiens) (UniProt P17787+P43681). Briefly: Binding affinity to human alpha4beta2 nAChR in HEK cells at 78 nM after 2 hrs measured 10 mins post-irradiation by autoradiography in the presence of 160 uM (+/-)-bupropion. To be noted: HEK293, tested as the 125I-labelled form.
The target in experiment [6] is T2, Neuronal acetylcholine receptor; alpha4/beta2 (Homo sapiens). Briefly: Binding affinity to human alpha4beta2 nAChR in HEK cells at 0.21 nM after 5 hrs by gamma counting in the presence of (+/-)-bupropion. As to conditions: HEK293, tested as the 125I-labelled form.

T1 sequence (Q01959 whole entry): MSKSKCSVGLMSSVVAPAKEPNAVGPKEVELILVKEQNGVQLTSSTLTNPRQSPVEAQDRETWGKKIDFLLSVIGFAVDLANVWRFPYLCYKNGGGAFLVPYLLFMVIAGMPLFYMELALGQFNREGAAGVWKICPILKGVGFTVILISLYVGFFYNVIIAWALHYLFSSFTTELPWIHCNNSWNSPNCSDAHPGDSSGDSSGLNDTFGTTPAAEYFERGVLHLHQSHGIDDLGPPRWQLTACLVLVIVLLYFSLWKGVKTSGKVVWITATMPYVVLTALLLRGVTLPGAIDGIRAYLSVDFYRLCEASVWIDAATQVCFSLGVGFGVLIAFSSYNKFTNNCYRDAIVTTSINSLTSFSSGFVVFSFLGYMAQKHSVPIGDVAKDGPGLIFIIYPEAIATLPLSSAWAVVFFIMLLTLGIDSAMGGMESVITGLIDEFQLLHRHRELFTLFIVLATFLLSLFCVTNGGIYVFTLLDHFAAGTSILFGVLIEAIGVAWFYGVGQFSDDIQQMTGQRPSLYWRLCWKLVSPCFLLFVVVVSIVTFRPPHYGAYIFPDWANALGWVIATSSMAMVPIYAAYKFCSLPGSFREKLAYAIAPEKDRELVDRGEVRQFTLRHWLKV

Compound `CC(NC(C)(C)C)C(=O)c1ccc(N=[N+]=[N-])c(I)c1` (racemic) had an inhibition constant (Ki) in experiment [1] of 3.07 µM. For the same compound, in experiment [2], the outcome was Active. In addition, the result in experiment [3], in experiment [4], in experiment [5] and in experiment [6] was inactive.
